For orientation: Cmax means the highest concentration seen after dosing. One may read the half-life as how long it takes for the measured level to halve. A lower half-life goes with fast loss.

Each structure is given as a SMILES string. Where “and” joins values, the source holds several entries; their conditions need not be identical. Equal entries are not always repeated. Where two headings read alike, the source gives them in different places.

Here are results for 3 compounds from PMC2634724 (British Journal of Cancer, 2009).

For data set [1], the system named is patients with advanced solid tumours. Conditions: human, in vivo.
Method: (§2) Patients receiving at least one dose of study drug medications were evaluated weekly for safety using the National Cancer Institute Common Toxicity Criteria version 2.0. Safety assessments consisted of clinical examinations and scheduled laboratory evaluations and electrocardiograms. […] Treatment with the combination was discontinued on any grade 4 toxicity or failure to return to grade ⩽1 within 2 weeks. […] The concomitant use of any drugs that may interfere with cytochrome CYP450-3A was discouraged. […] Anti-tumour activity was assessed using Response Evaluation Criteria in Solid Tumors.
(§3) Dose-limiting toxicity was defined as occurring during the first 28-day cycle, suspected of being drug related, and included any grade 4 toxicity, any grade 3 non-haematological toxicity despite preventive therapy, or grade ⩾2 neutropenia, or thrombocytopenia failing to revert to grade ⩽1 within 2 weeks. Three patients were entered per dose level, with expansion to six patients if one of three patients experienced DLT. If DLT occurred in none of three or no more than one of six patients in dose level 1, doses would be escalated to dose level 2. Dose-limiting toxicity in more than one of three or more than two of six patients would be considered unacceptable.
Data set [2] concerns patients with advanced cancers. Details: method as in Tabernero et al, 2008. As to conditions: single-agent everolimus 70 mg weekly; ref Tabernero et al, 2008; cited from earlier work.
Data set [3] is described as follows: Pharmacokinetics of everolimus in whole blood (LC-MS, non-compartmental). Type of data set: in vivo, human. As to conditions: for Tmax / Cmax / half-life: whole blood; for Cmax / half-life: mean (s.d.). On the procedure:
(§1) For everolimus, sampling was carried out predose and 1, 2, 4, 6, 12, 24, 48, 96, and 168 h after administration. Everolimus was measured in whole blood by liquid chromatography–mass spectrometry after liquid extraction, its lower limit of quantification being 0.368 ng ml^−1. […] Pharmacokinetic parameters were derived by standard non-compartmental methods of analysis (WinNonlin Pro 5.0). The measured parameters included the maximum plasma concentration (Cmax), time to reach Cmax (tmax), and the truncated area under the time–concentration curve (AUClast).

Data set [4] concerns S6K1. The arrangement: method as in O'Donnell et al, 2008. Conditions: ref O'Donnell et al, 2008, cited from earlier work.
The test system of data set [5] is advanced solid tumours. The experiment in a line: Anti-tumour activity, Response Evaluation Criteria in Solid Tumors. Type of data set: in vivo, human.
Method: as §2
Data set [6] deals with patients with advanced solid tumours. Briefly: Safety and dose-limiting toxicity, NCI Common Toxicity Criteria version 2.0. Conditions: everolimus + paclitaxel, 16 patients.
Method: as §2, §3
Data set [7] concerns trastuzumab-resistant breast cancer. The arrangement: method as in André et al, 2008. Conditions: everolimus and paclitaxel with trastuzumab; population pre-treated with trastuzumab and taxanes; preliminary; ref André et al, 2008; cited from earlier work.
In another data set the test system is tumour models. The arrangement: method as in O'Reilly et al, 2003. Conditions: schedule effect, ref O'Reilly et al, 2003; cited from earlier work.
For data set [8] the following is noted: as a single agent; no reference given; cited from earlier work.
Data set [9] deals with S6K1. Details: method as in Tabernero et al, 2008. Conditions: weekly dosing (20, 50, or 70 mg), immunohistochemistry; ref Tabernero et al, 2008; cited from earlier work.
In data set [10] the test system is advanced solid tumours. As to conditions: prior docetaxel therapy in the same two patients with metastatic breast cancer; patient history; cited from earlier work.
Another data set is described as follows: clinical. As to conditions: human, in vivo, iv. On the procedure: as §1
The subject of another data set is cervical cancer. The arrangement: method as in Mori et al, 2007. As to conditions: weekly paclitaxel, cervical cancer patients; ref Mori et al, 2007; cited from earlier work.
For data set [11] the following is noted: as a single agent; cited from earlier work.
The mark [12] stands for this setting: human, po, 15 mg, everolimus 15 mg oral alone, dose level 1, n=3.
[13] abbreviates: human, po, 30 mg, everolimus 30 mg oral alone, dose level 2, n=4.
Where [14] appears, read: human, po, everolimus 15 mg oral with paclitaxel 80 mg m^−2, dose level 1, n=3.
Where [15] appears, read: human, po, everolimus 30 mg oral with paclitaxel 80 mg m^−2, dose level 2, n=7.
[16] abbreviates: everolimus + paclitaxel, 16 patients.

For the compound `CO[C@H]1C[C@@H]2CC[C@@H](C)[C@@](O)(O2)C(=O)C(=O)N2CCCC[C@H]2C(=O)O[C@H]([C@H](C)C[C@@H]2CC[C@@H](OCCO)[C@H](OC)C2)CC(=O)[C@H](C)/C=C(\C)[C@@H](O)[C@@H](OC)C(=O)[C@H](C)C[C@H](C)/C=C/C=C/C=C/1C` [everolimus, Everolimus], in data set [1], the “Dose interruptions in any cycle, n (%)” value is on record as 8 (50.0). Further, the Dose-limiting toxicities observed entry in data set [2] is “grade 3 stomatitis, neutropenia, and hyperglycaemia”. Besides, the Tmax in data set [3] (everolimus 30 mg oral with paclitaxel 80 mg m^−2, dose level 2, n=7, median (range)) is 1.0 (1–4) h; in data set [3] (human, po, read-out: tmax), 1 h; in data set [3] (human, everolimus 15 mg oral alone, dose level 1, n=3, median (range), read-out: tmax), 1 h; in data set [3] (human, everolimus 30 mg oral alone, dose level 2, n=4, median (range), read-out: tmax), 1 h. Besides, the “Change in tmax, Cmax and AUClast when given in combination” value in data set [3] (everolimus with paclitaxel vs alone) is “no meaningful change”. Also, the Cmax in data set [3] (setting [12]) stood at 75.2 ± 37.4 ng/mL; in [3] (setting [13]), 93 ± 28.6 ng/mL; in data set [3] (setting [14]), 57.9 ± 35.8 ng/mL; in [3] (setting [15]) it was 94.5 ± 60.1 ng/mL. Further, the half-life in [3] (setting [12]) is 29.5 ± 8.5 h; in data set [3] (setting [13]) it was 26.9 ± 7.1 h; in [3] (setting [14]), 24.6 ± 3.6 h; in data set [3] (setting [15]), 27.4 ± 5.6 h. Also, the “Change of everolimus AUC with concomitant fluconazole” value in [3] (one patient at dose level 2 (everolimus 30 mg), concomitant medication with fluconazole) is “threefold increase”. In addition, the “Duration of sustained inhibition of S6K1 activity in peripheral blood mononuclear cells” value with S6K1 [4] (single-agent everolimus at doses ⩾20 mg per week) is reported as “at least 7 days”. The “Dose with consistent inhibition of S6K1 activity in peripheral blood mononuclear cells” value with S6K1 [4] (single-agent everolimus) is recorded as not below 20 mg per week. Further, the Objective response result in the data set on advanced solid tumours [5] (setting [16]) was “No objective response”. Also, the “Tumour stabilisation reported, patients” value in the data set on advanced solid tumours [5] (setting [16]) was 11 patients. The “Sustained tumour stabilisation for more than 4 months, patients” value in the data set on advanced solid tumours [5] (everolimus + paclitaxel, breast (two), ovarian (two), thyroid carcinoma (one), liposarcoma (one)) is “six”. The “Duration of tumour stabilisation” value in the data set with advanced solid tumours [5] (two patients with metastatic breast cancer at dose level 2 (everolimus 30 mg + paclitaxel)) was more than 6 months. Further, in [6], the Toxicity-related death entry is on record as “No toxicity-related death”. Moreover, in data set [7], the Rate of response is listed as 46%. Also, the “Effect of in vivo combination with paclitaxel” value with tumour models was “additive and synergistic effects”. The Terminal half-life result in data set [8] is reported as “about 30 h”. Moreover, in the data set on S6K1 [9], the “Dose with confirmed inhibition of S6K1 in paired tumour tissue biopsies” value is listed as not below 20 mg.

On to `CC(=O)O[C@@]12CO[C@@H]1C[C@H](O)[C@@]1(C)C(=O)[C@H](O)C3=C(C)[C@@H](OC(=O)[C@H](O)[C@@H](NC(=O)OC(C)(C)C)c4ccccc4)C[C@@](O)([C@@H](OC(=O)c4ccccc4)[C@H]21)C3(C)C` [docetaxel], for which the “Duration of tumour stabilisation previously recorded” value in the data set on advanced solid tumours [10] is 3.7 months and 3.5 months.

Take `CC(=O)O[C@H]1C(=O)[C@@]2(C)[C@H]([C@H](OC(=O)c3ccccc3)[C@]3(O)C[C@H](OC(=O)[C@H](O)[C@@H](NC(=O)c4ccccc4)c4ccccc4)C(C)=C1C3(C)C)[C@]1(OC(C)=O)CO[C@@H]1C[C@@H]2O` [paclitaxel]: the Tmax in the data set “clinical” worked out at 4.8 min. Moreover, in the data set with cervical cancer, the “Time apoptosis could be induced after treatment” value is given as “up to 1 week” and the “Time paclitaxel could be detected in tissue” value is “up to 6 days”. For the same compound, in data set [11], the Terminal half-life result was “about 10 h”.
